Results taken from PubChem BioAssay (NCI).
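How tested: cells in 96-well plates exposed to compound for 48 hours at five concentrations. TGI marks complete inhibition of growth.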

tested on: SF-295 CNS; experiment: NCI-60 cell line screen, 48 h

Question: Which TGI does the source give for `COc1ccc(/C=C/c2nsc(/C=C/c3ccc(OC)cc3)n2)cc1` here?
Answer: > 100 µM

Question: Which TGI does the source give for `O=C1CSC(c2ccccc2O)N1c1ccc(-c2ccc(-n3c(-c4ccccc4)nc4ccccc4c3=O)cc2)cc1` (stereo not given) here?
Answer: 54.2 µM

Question: Which TGI does the source give for `COc1ccc2c3c1O[C@H]1[C@@H](O)CC[C@@]4(O)[C@@H](C2)N(C)CC[C@]314` here?
Answer: > 100 µM

Question: How did the TGI turn out when `C(=N\c1nc2cc3sc(/N=C/c4cccs4)nc3cc2s1)/c1cccs1` was run?
Answer: > 100 µM

tested on: MCF7 breast; experiment: NCI-60 cell line screen, 48 h

Question: With `NC(=S)N/N=C/c1c[nH]c2ccccc12` as the compound, how does the TGI read?
Answer: > 100 µM

Question: Which TGI does the source give for `COc1ccc(/C=C/c2nsc(/C=C/c3ccc(OC)cc3)n2)cc1` here?
Answer: > 100 µM

Question: For `O=C1CSC(c2ccccc2O)N1c1ccc(-c2ccc(-n3c(-c4ccccc4)nc4ccccc4c3=O)cc2)cc1` (stereo not given), which TGI is on record?
Answer: > 100 µM

Question: Which TGI does the source give for `COc1ccc2c3c1O[C@H]1[C@@H](O)CC[C@@]4(O)[C@@H](C2)N(C)CC[C@]314` here?
Answer: > 100 µM

Question: For `C(=N\c1nc2cc3sc(/N=C/c4cccs4)nc3cc2s1)/c1cccs1`, which TGI is on record?
Answer: > 100 µM

tested on: NCI-H460 lung; experiment: NCI-60 cell line screen, 48 h

Question: How did the TGI turn out when `NC(=S)N/N=C/c1c[nH]c2ccccc12` was run?
Answer: > 100 µM

Question: Which TGI does the source give for `COc1ccc(/C=C/c2nsc(/C=C/c3ccc(OC)cc3)n2)cc1` here?
Answer: 88.7 µM

Question: How did the TGI turn out when `O=C1CSC(c2ccccc2O)N1c1ccc(-c2ccc(-n3c(-c4ccccc4)nc4ccccc4c3=O)cc2)cc1` (stereo not given) was run?
Answer: > 100 µM

Question: For `C(=N\c1nc2cc3sc(/N=C/c4cccs4)nc3cc2s1)/c1cccs1`, which TGI is on record?
Answer: > 100 µM

tested on: NCI-H23 lung; experiment: NCI-60 cell line screen, 48 h

Question: `NC(=S)N/N=C/c1c[nH]c2ccccc12` was tested. Which TGI did it give?
Answer: > 100 µM

Question: `O=C1CSC(c2ccccc2O)N1c1ccc(-c2ccc(-n3c(-c4ccccc4)nc4ccccc4c3=O)cc2)cc1` (stereo not given) was tested. Which TGI did it give?
Answer: > 100 µM

Question: How did the TGI turn out when `COc1ccc2c3c1O[C@H]1[C@@H](O)CC[C@@]4(O)[C@@H](C2)N(C)CC[C@]314` was run?
Answer: > 100 µM

Question: For `C(=N\c1nc2cc3sc(/N=C/c4cccs4)nc3cc2s1)/c1cccs1`, which TGI is on record?
Answer: > 100 µM

tested on: TK-10 renal; experiment: NCI-60 cell line screen, 48 h

Question: How did the TGI turn out when `NC(=S)N/N=C/c1c[nH]c2ccccc12` was run?
Answer: > 100 µM

Question: Which TGI does the source give for `COc1ccc(/C=C/c2nsc(/C=C/c3ccc(OC)cc3)n2)cc1` here?
Answer: > 100 µM

Question: `O=C1CSC(c2ccccc2O)N1c1ccc(-c2ccc(-n3c(-c4ccccc4)nc4ccccc4c3=O)cc2)cc1` (stereo not given) was tested. Which TGI did it give?
Answer: 71 µM

Question: `COc1ccc2c3c1O[C@H]1[C@@H](O)CC[C@@]4(O)[C@@H](C2)N(C)CC[C@]314` was tested. Which TGI did it give?
Answer: > 100 µM

Question: For `C(=N\c1nc2cc3sc(/N=C/c4cccs4)nc3cc2s1)/c1cccs1`, which TGI is on record?
Answer: > 100 µM

tested on: T-47D breast; experiment: NCI-60 cell line screen, 48 h

Question: With `NC(=S)N/N=C/c1c[nH]c2ccccc12` as the compound, how does the TGI read?
Answer: > 100 µM

Question: For `COc1ccc(/C=C/c2nsc(/C=C/c3ccc(OC)cc3)n2)cc1`, which TGI is on record?
Answer: > 100 µM

Question: For `O=C1CSC(c2ccccc2O)N1c1ccc(-c2ccc(-n3c(-c4ccccc4)nc4ccccc4c3=O)cc2)cc1` (stereo not given), which TGI is on record?
Answer: > 100 µM

Question: With `COc1ccc2c3c1O[C@H]1[C@@H](O)CC[C@@]4(O)[C@@H](C2)N(C)CC[C@]314` as the compound, how does the TGI read?
Answer: > 100 µM

Question: `C(=N\c1nc2cc3sc(/N=C/c4cccs4)nc3cc2s1)/c1cccs1` was tested. Which TGI did it give?
Answer: > 100 µM

tested on: ACHN renal; experiment: NCI-60 cell line screen, 48 h

Question: For `NC(=S)N/N=C/c1c[nH]c2ccccc12`, which TGI is on record?
Answer: > 100 µM

Question: How did the TGI turn out when `COc1ccc(/C=C/c2nsc(/C=C/c3ccc(OC)cc3)n2)cc1` was run?
Answer: > 100 µM

Question: Which TGI does the source give for `COc1ccc2c3c1O[C@H]1[C@@H](O)CC[C@@]4(O)[C@@H](C2)N(C)CC[C@]314` here?
Answer: > 100 µM

Question: With `C(=N\c1nc2cc3sc(/N=C/c4cccs4)nc3cc2s1)/c1cccs1` as the compound, how does the TGI read?
Answer: > 100 µM

tested on: HCT-116 colon; experiment: NCI-60 cell line screen, 48 h

Question: With `NC(=S)N/N=C/c1c[nH]c2ccccc12` as the compound, how does the TGI read?
Answer: > 100 µM

Question: With `COc1ccc(/C=C/c2nsc(/C=C/c3ccc(OC)cc3)n2)cc1` as the compound, how does the TGI read?
Answer: > 100 µM

Question: `O=C1CSC(c2ccccc2O)N1c1ccc(-c2ccc(-n3c(-c4ccccc4)nc4ccccc4c3=O)cc2)cc1` (stereo not given) was tested. Which TGI did it give?
Answer: > 100 µM

Question: Which TGI does the source give for `COc1ccc2c3c1O[C@H]1[C@@H](O)CC[C@@]4(O)[C@@H](C2)N(C)CC[C@]314` here?
Answer: > 100 µM

Question: With `C(=N\c1nc2cc3sc(/N=C/c4cccs4)nc3cc2s1)/c1cccs1` as the compound, how does the TGI read?
Answer: > 100 µM

tested on: HL-60(TB) leukemia; experiment: NCI-60 cell line screen, 48 h

Question: Which TGI does the source give for `NC(=S)N/N=C/c1c[nH]c2ccccc12` here?
Answer: > 100 µM

Question: How did the TGI turn out when `COc1ccc(/C=C/c2nsc(/C=C/c3ccc(OC)cc3)n2)cc1` was run?
Answer: > 100 µM

Question: Which TGI does the source give for `O=C1CSC(c2ccccc2O)N1c1ccc(-c2ccc(-n3c(-c4ccccc4)nc4ccccc4c3=O)cc2)cc1` (stereo not given) here?
Answer: > 100 µM

Question: How did the TGI turn out when `COc1ccc2c3c1O[C@H]1[C@@H](O)CC[C@@]4(O)[C@@H](C2)N(C)CC[C@]314` was run?
Answer: > 100 µM

Question: `C(=N\c1nc2cc3sc(/N=C/c4cccs4)nc3cc2s1)/c1cccs1` was tested. Which TGI did it give?
Answer: > 100 µM

tested on: MALME-3M melanoma; experiment: NCI-60 cell line screen, 48 h

Question: With `NC(=S)N/N=C/c1c[nH]c2ccccc12` as the compound, how does the TGI read?
Answer: > 100 µM

Question: For `COc1ccc(/C=C/c2nsc(/C=C/c3ccc(OC)cc3)n2)cc1`, which TGI is on record?
Answer: > 100 µM

Question: How did the TGI turn out when `O=C1CSC(c2ccccc2O)N1c1ccc(-c2ccc(-n3c(-c4ccccc4)nc4ccccc4c3=O)cc2)cc1` (stereo not given) was run?
Answer: 49.3 µM

Question: Which TGI does the source give for `COc1ccc2c3c1O[C@H]1[C@@H](O)CC[C@@]4(O)[C@@H](C2)N(C)CC[C@]314` here?
Answer: > 100 µM

Question: How did the TGI turn out when `C(=N\c1nc2cc3sc(/N=C/c4cccs4)nc3cc2s1)/c1cccs1` was run?
Answer: > 100 µM

tested on: RXF 393 renal; experiment: NCI-60 cell line screen, 48 h

Question: For `NC(=S)N/N=C/c1c[nH]c2ccccc12`, which TGI is on record?
Answer: > 100 µM

Question: How did the TGI turn out when `COc1ccc(/C=C/c2nsc(/C=C/c3ccc(OC)cc3)n2)cc1` was run?
Answer: > 100 µM

Question: Which TGI does the source give for `O=C1CSC(c2ccccc2O)N1c1ccc(-c2ccc(-n3c(-c4ccccc4)nc4ccccc4c3=O)cc2)cc1` (stereo not given) here?
Answer: 91.9 µM

Question: Which TGI does the source give for `C(=N\c1nc2cc3sc(/N=C/c4cccs4)nc3cc2s1)/c1cccs1` here?
Answer: > 100 µM

tested on: IGROV1 ovarian; experiment: NCI-60 cell line screen, 48 h

Question: How did the TGI turn out when `NC(=S)N/N=C/c1c[nH]c2ccccc12` was run?
Answer: > 100 µM

Question: For `COc1ccc(/C=C/c2nsc(/C=C/c3ccc(OC)cc3)n2)cc1`, which TGI is on record?
Answer: > 100 µM

Question: Which TGI does the source give for `O=C1CSC(c2ccccc2O)N1c1ccc(-c2ccc(-n3c(-c4ccccc4)nc4ccccc4c3=O)cc2)cc1` (stereo not given) here?
Answer: > 100 µM

Question: For `COc1ccc2c3c1O[C@H]1[C@@H](O)CC[C@@]4(O)[C@@H](C2)N(C)CC[C@]314`, which TGI is on record?
Answer: > 100 µM

Question: How did the TGI turn out when `C(=N\c1nc2cc3sc(/N=C/c4cccs4)nc3cc2s1)/c1cccs1` was run?
Answer: > 100 µM

tested on: RPMI-8226 leukemia; experiment: NCI-60 cell line screen, 48 h

Question: Which TGI does the source give for `NC(=S)N/N=C/c1c[nH]c2ccccc12` here?
Answer: > 100 µM

Question: `COc1ccc(/C=C/c2nsc(/C=C/c3ccc(OC)cc3)n2)cc1` was tested. Which TGI did it give?
Answer: > 100 µM

Question: For `O=C1CSC(c2ccccc2O)N1c1ccc(-c2ccc(-n3c(-c4ccccc4)nc4ccccc4c3=O)cc2)cc1` (stereo not given), which TGI is on record?
Answer: > 100 µM

Question: Which TGI does the source give for `COc1ccc2c3c1O[C@H]1[C@@H](O)CC[C@@]4(O)[C@@H](C2)N(C)CC[C@]314` here?
Answer: > 100 µM

Question: `C(=N\c1nc2cc3sc(/N=C/c4cccs4)nc3cc2s1)/c1cccs1` was tested. Which TGI did it give?
Answer: > 100 µM

tested on: OVCAR-3 ovarian; experiment: NCI-60 cell line screen, 48 h

Question: `NC(=S)N/N=C/c1c[nH]c2ccccc12` was tested. Which TGI did it give?
Answer: > 100 µM

Question: `COc1ccc(/C=C/c2nsc(/C=C/c3ccc(OC)cc3)n2)cc1` was tested. Which TGI did it give?
Answer: > 100 µM

Question: `O=C1CSC(c2ccccc2O)N1c1ccc(-c2ccc(-n3c(-c4ccccc4)nc4ccccc4c3=O)cc2)cc1` (stereo not given) was tested. Which TGI did it give?
Answer: > 100 µM

Question: How did the TGI turn out when `COc1ccc2c3c1O[C@H]1[C@@H](O)CC[C@@]4(O)[C@@H](C2)N(C)CC[C@]314` was run?
Answer: > 100 µM

Question: How did the TGI turn out when `C(=N\c1nc2cc3sc(/N=C/c4cccs4)nc3cc2s1)/c1cccs1` was run?
Answer: > 100 µM

tested on: OVCAR-5 ovarian; experiment: NCI-60 cell line screen, 48 h

Question: With `NC(=S)N/N=C/c1c[nH]c2ccccc12` as the compound, how does the TGI read?
Answer: > 100 µM

Question: Which TGI does the source give for `COc1ccc(/C=C/c2nsc(/C=C/c3ccc(OC)cc3)n2)cc1` here?
Answer: > 100 µM

Question: For `O=C1CSC(c2ccccc2O)N1c1ccc(-c2ccc(-n3c(-c4ccccc4)nc4ccccc4c3=O)cc2)cc1` (stereo not given), which TGI is on record?
Answer: > 100 µM

Question: How did the TGI turn out when `COc1ccc2c3c1O[C@H]1[C@@H](O)CC[C@@]4(O)[C@@H](C2)N(C)CC[C@]314` was run?
Answer: > 100 µM

Question: `C(=N\c1nc2cc3sc(/N=C/c4cccs4)nc3cc2s1)/c1cccs1` was tested. Which TGI did it give?
Answer: > 100 µM
